The structures appear in SMILES notation. pIC50: −log10 of the molar value. The source made the active and inactive calls. No cut-off for these calls is given here.

Holding throughout (assay type): functional, organism-based
Experiment [1] deals with Microcystis aeruginosa. Nature of the experiment: Antialgal activity against Microcystis aeruginosa NIES 44 after 24 hrs by fluorophotometric method.
Experiment [2] concerns Dolichospermum flos-aquae. Nature of the experiment: Antialgal activity against Anabaena flos-aquae NIES 73 after 48 hrs by fluorophotometric method.
For experiment [3], the system named is Microcystis aeruginosa. Nature of the experiment: Antialgal activity against Microcystis aeruginosa NIES 44 up to 500 uM after 24 hrs by fluorophotometric method.

What is called pIC50 is the IC50 on a negative log10 scale, so that one unit is a factor of ten. On to `O=C(O[C@@H]1[C@@H](OC(=O)c2cc(O)c(O)c(O)c2)[C@H](O)O[C@@H]2COC(=O)c3cc(O)c(O)c(O)c3-c3c(cc(O)c(O)c3O)C(=O)O[C@@H]12)c1cc(O)c(O)c(O)c1`, for which the pIC50 in the experiment on Microcystis aeruginosa [1] was 5.43; in experiment [2], 5.02. Turning to `OC[C@H]1OC(O)[C@H](O)[C@@H](O)[C@@H]1O` (stereo partly drawn), the outcome in the experiment with Microcystis aeruginosa [3] was inactive.

`O=c1c(O[C@@H]2O[C@@H](CO)[C@H](O)[C@H]2O)c(-c2ccc(O)c(O)c2)oc2cc(O)cc(O)c12` [AVICULARIN]: the results for the negative-log IC50 (pIC50) (with Microcystis aeruginosa [1]; in experiment [2]) were 3.74 and 4.55, respectively.

For the compound `O=C(O[C@@H]1O[C@@H]2COC(=O)c3cc(O)c(O)c(O)c3-c3c(cc(O)c(O)c3O)C(=O)O[C@H]2[C@H](OC(=O)c2cc(O)c(O)c(O)c2)[C@H]1OC(=O)c1cc(O)c(O)c(O)c1)c1cc(O)c(O)c(O)c1` [EUGENIIN], the negative logarithm of the IC50 (pIC50) was 5.80 with Microcystis aeruginosa [1] and 5.55 in experiment [2].

`O=C(O)c1cc(O)c(O)c(O)c1` [GALLIC ACID]: the results for the negative logarithm of the IC50 (pIC50) (in the experiment on Microcystis aeruginosa [1]; in experiment [2]) were 4.72 and 4.48, respectively.

As for `O=c1c(O)c(-c2ccc(O)c(O)c2)oc2cc(O)cc(O)c12` [QUERCETIN], the negative-log IC50 (pIC50) was 4.92 with Microcystis aeruginosa [1] and 4.60 in experiment [2]. `C[C@@H]1O[C@@H](Oc2c(-c3ccc(O)c(O)c3)oc3cc(O)cc(O)c3c2=O)[C@H](O)[C@H](O)[C@H]1O` [QUERCITRIN]: the negative-log IC50 (pIC50) was 5.05 in the experiment with Microcystis aeruginosa [1] and 4.35 in experiment [2].

The record behind these values is ChEMBL document CHEMBL1147318, “Inhibitory Substances from Myriophyllum brasiliense on Growth of Blue-Green Algae” (J Nat Prod, 1989).
